Type in all cases: functional, cell-based
Assay [1] relates to MCF7. Description: Cytotoxicity against human MCF7 cells after 48 hrs by MTT assay. As to conditions: MCF7, 48 h.
Assay [2] has as its system K562. Put plainly: Cytotoxicity against human K562 cells after 48 hrs by MTT assay. Conditions: K562, 48 h.
Assay [3] concerns BT-474. Put plainly: Cytotoxicity against human BT474 cells after 48 hrs by MTT assay. A general note: Tetrazolium assays rely on reduction of a dye to a coloured formazan, in cell work by metabolically active cells.
The test system of assay [4] is MDA-MB-231. Description: Cytotoxicity against human MDA-MB-231 cells after 48 hrs by MTT assay.

Among the data in ChEMBL document CHEMBL1255173, “Dihydro-resveratrol--a potent dietary polyphenol” (Bioorg Med Chem Lett, 2010) are IC50 and Activity values, retold here.

SMILES strings stand for the structures. Activity calls are given as the source filed them. The rule behind the calls is not given here. Bounds are passed on as bounds.

In general, IC50 refers to the point on the concentration scale where inhibition reaches its midpoint. `O=c1c(-c2ccc(O)cc2)coc2cc(O)cc(O)c12` [GENISTEIN] showed a 50% inhibitory concentration (IC50) in assay [1] of 1000 nM.
`Oc1ccc(CCc2cc(O)cc(O)c2)cc1` [DIHYDRORESVERATROL]: the IC50 in assay [2] was < 1000 nM. Also, the outcome in assay [3] and in assay [4] was inactive.
